Experiment [1] deals with mTORC2 activity: phosphorylated AKT Ser473 (pAKT S473) in PC3 cells. As to the kind of experiment: mTOR target engagement assay, immunofluorescent cell-based, mTORC2 readout. The following applies: Homo sapiens, PC-3, 1.5 h, 90 min treatment. The protocol: The target engagement of mTOR kinase inhibitors was evaluated using an immunofluorescent cell-based assay. In this assay, inhibition of mTORC1 activity was measured by the reduction in the level of phosphorylated 4E-BP1Thr37/46 (p4E-BP1 Thr37/46), and inhibition of mTORC2 activity was measured by the reduction of phosphorylated AKTSer473 (pAKT S473).
PC3 cells (prostate tumor cell-line that contains a mutation in the tumor suppressor PTEN, that promotes the phosphorylation and activation of AKT and 4E-BP1) were used in the immunofluorescence assay. PC3 cells were seeded on 384 well plates (black clear bottom, Matrix #4332) overnight. PC3 cells were then treated with 40 μl of the serially diluted test compounds (in 5% fetal bovine serum, F12 medium containing 0.25% DMSO) for ninety minutes at 37° C. The test compound solution was removed, and the plates were washed gently two times with 25 μl phosphate buffered saline (PBS). The cells were fixed by adding 25 μl of Prefer reagent (from Anatech LTD, Cat#414, a glyoxal fixative for fixing proteins within a cell) for sixty minutes followed by three washes with PBS. 5% Goat serum in PBS/0.3% Triton was used to block non-specific binding (60 minutes).
The primary antibodies targeting pAKT S473 and p4E-BP1 Thr37/46 were diluted into PBS/0.3% Triton and incubated with the cells overnight at 4° C. The antibodies targeting pAKTS473 (Cat#4085, Cell signaling) and p4E-BP1 Thr37/46 (Cat#2855, Cell signaling) were used at a 1:100 dilution. Plates were washed three times with PBS/0.1% Tween 20 before adding the secondary antibody at a 1:200 dilution. (goat anti-rabbit containing a fluorescent label, Alexa Fluor 488, Cat#A11008, Invitrogen) in PBS/0.3% Triton for 60 minutes.
Finally, the plates were washed three times with PBS/0.1% Tween 20 and the fluorescent intensity was read using an Analyst HT from Molecular Devices. The fluorescent intensity values from the serially diluted compound treatment group were analyzed using the Xlfit 4 program ([…]) (Formula 205: Y=Bottom+(Top-Bottom)/(1+(IC50/X)^Hillslope) to generate the IC50 value. Where Top is the maximum signal without Compound (+DMSO only) and Bottom represents maximum inhibition. Y is the fluorescence at some compound concentration. The control used to determine the fluorescent intensities for 100% pAKT S473 or 100% phosphorylated p4E-BP1 Thr37/46 were measured from untreated wells that contained only DMSO, instead of test compound.

For the next experiment, the target named is human mTOR enzyme (Homo sapiens, UniProt P42345). Description: HTRF mTOR enzyme (kinase) assay. The experiment is classed as biochemical. Conditions: 5 μM ATP, 0.2 μM GST-S6K, read-out: hMTOR IC50. The protocol:
Methods: An HTRF mTOR enzyme assay was developed to assess the compounds' inhibitory activity. The mTOR assay buffer contained 10 mM Hepes (pH 7.4), 50 mM NaCl, […] BSA, 50 mM […], 10 mM MnCl2 and 0.5 mM DTT. […] 20 ng of human mTOR enzyme (<5% pure was preincubated with the compound for 10 minutes followed by the addition of 5 μM ATP and 0.2 μM GST-S6K (Zhang et al., Protein Expression and Purification 46, pp 414-420 (2006)). The reaction was incubated for one hour at 30° C. Anti phospho p70-S6K(Thr389) (˜1.7 ng/well, anti-phospho-p70S6K-cryptate (Pho-p70S6-Kin-K cat#64CUSKAY, from Cisbio)) and anti GST-XL665 (1:1 Ratio with the substrate GST-S6K, anti GST-XL665, cat#61GSTXLB) Cisbio) were added after the reaction was stopped. The plates were read (PHERAstar, BMG) at least 2 hours after adding the anti phospho p70-S6K and the anti GST-XL665.
IC50 DETERMINATIONS: Dose-response curves were plotted from the inhibition data generated, each in duplicate, from 8 point serial dilutions of inhibitory compounds. Concentration of compound was plotted against the HTRF em665/em590 ratio signal. To generate IC50 values, the dose-response curves were fitted to a standard sigmoidal curve and IC50 values were derived by nonlinear regression analysis.

Read-outs that look alike come from different tables or passages of the source.

human mTOR enzyme, sequence (P42345 1360-2549 limits assumed): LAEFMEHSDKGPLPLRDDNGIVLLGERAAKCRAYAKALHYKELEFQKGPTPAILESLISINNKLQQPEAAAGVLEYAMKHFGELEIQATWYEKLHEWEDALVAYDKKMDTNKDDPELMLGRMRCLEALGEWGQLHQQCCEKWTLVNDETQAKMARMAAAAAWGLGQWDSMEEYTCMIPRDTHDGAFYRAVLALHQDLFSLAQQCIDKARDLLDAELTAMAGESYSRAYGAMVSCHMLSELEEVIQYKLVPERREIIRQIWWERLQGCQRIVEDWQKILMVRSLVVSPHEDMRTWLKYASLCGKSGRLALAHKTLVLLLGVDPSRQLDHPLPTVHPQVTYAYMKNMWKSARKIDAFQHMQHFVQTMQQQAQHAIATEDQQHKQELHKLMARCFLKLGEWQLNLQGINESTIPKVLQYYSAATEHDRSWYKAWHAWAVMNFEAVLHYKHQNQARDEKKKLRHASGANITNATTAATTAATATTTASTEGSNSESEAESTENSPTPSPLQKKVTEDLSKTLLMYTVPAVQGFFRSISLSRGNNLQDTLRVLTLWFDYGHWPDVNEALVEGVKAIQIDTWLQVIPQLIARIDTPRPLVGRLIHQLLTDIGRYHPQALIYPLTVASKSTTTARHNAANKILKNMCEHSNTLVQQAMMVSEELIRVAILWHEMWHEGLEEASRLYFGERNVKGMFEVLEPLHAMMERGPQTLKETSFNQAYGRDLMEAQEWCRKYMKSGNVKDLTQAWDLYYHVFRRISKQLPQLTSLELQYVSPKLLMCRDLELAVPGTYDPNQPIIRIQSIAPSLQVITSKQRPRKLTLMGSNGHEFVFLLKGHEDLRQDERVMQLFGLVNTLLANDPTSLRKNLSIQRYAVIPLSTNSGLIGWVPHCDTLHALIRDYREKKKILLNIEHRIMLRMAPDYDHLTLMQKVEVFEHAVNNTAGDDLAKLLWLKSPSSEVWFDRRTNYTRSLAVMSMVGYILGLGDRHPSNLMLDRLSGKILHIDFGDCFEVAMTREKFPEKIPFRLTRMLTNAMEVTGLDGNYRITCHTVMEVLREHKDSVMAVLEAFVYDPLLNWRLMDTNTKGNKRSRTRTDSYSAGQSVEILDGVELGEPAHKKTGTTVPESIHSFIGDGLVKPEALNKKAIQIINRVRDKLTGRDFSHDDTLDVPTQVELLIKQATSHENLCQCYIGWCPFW

Turning to `CC(=O)c1c(C2CCC(CO)(C(=O)O)CC2)nc2c(-c3cnn(-c4ccccc4)c3)cnn2c1N` (centres unmarked) [Compound 132, 4-(6-acetyl-7-amino-3-(1-phenyl-1H-pyrazol-4-yl)pyrazolo[1,5-a]pyrimidin-5-yl)-1-(hydroxymethyl)cyclohexanecarboxylic acid], the IC50 in experiment [1] (rated class) was in the range of 100 to 1000 nM; at human mTOR enzyme (rated class), 1 to 100 nM.

In the case of `CS(=O)(=O)C1(C(=O)O)CCC(c2nc3c(-c4cnn(-c5ccccc5)c4)cnn3c(N)c2Br)CC1` (centres unmarked) [Compound 27, 4-(7-amino-6-bromo-3-(1-phenyl-1H-pyrazol-4-yl)pyrazolo[1,5-a]pyrimidin-5-yl)-1-(methylsulfonyl)cyclohexanecarboxylic acid], the results for the IC50 (in experiment [1] (rated class); on human mTOR enzyme (rated class)) were 2000 to 5000 nM and 1 to 100 nM, respectively.

With `COCCO[C@]1(C(=O)O)CC[C@H](c2nc3c(-c4ccc(-c5ccccc5)nc4)cnn3c(N)c2C(C)=O)CC1` [Compound 56, (1S,4S)-4-(6-acetyl-7-amino-3-(6-phenylpyridin-3-yl)pyrazolo[1,5-a]pyrimidin-5-yl)-1-(2-methoxyethoxy) cyclohexanecarboxylic acid], the IC50 was 5000 to 15000 nM in experiment [1] (rated class) and 1 to 100 nM on human mTOR enzyme (rated class).

In the case of `COC1(CO)CCC(c2nc3c(-c4ccc(-c5ccccc5)nc4)cnn3c(N)c2Br)CC1` (centres unmarked) [Compound 82, (4-(7-amino-6-bromo-3-(6-phenylpyridin-3-yl)pyrazolo[1,5-a]pyrimidin-5-yl)-1-methoxycyclohexyl)methanol], the results for the concentration for half-maximal inhibition (IC50) (in experiment [1] (rated class); on human mTOR enzyme (rated class)) were 100 to 1000 nM and 1 to 100 nM, respectively.

As to `CC(=O)c1c(C2CCC(O)(CO)CC2)nc2c(-c3ccc(-c4cncs4)nc3)cnn2c1N` (centres unmarked) [Compound 157, 1-(7-amino-5-(4-hydroxy-4-(hydroxymethyl)-cyclohexyl)-3-(6-(thiazol-5-yl)pyridin-3-yl)pyrazolo[1,5-a]pyrimidin-6-yl)ethanone], the IC50 in experiment [1] (rated class) is 2000 to 5000 nM; on human mTOR enzyme (rated class), 1 to 100 nM.

As to `Nc1c(Br)c([C@H]2CC[C@@](O)(CC(=O)O)CC2)nc2c(-c3cnn(-c4ccccc4)c3)cnn12` [Compound 79, 2-((1R,4R)-4-(7-amino-6-bromo-3-(1-phenyl-1H-pyrazol-4-yl)pyrazolo[1,5-a]pyrimidin-5-yl)-1-hydroxycyclohexyl)-acetic acid], the IC50 in experiment [1] (rated class) was 100 to 1000 nM; on human mTOR enzyme (rated class) it was 1 to 100 nM.

As for `COC(=O)c1cc(-c2ccc(-c3cnn4c(N)c(C(C)=O)c([C@H]5CC[C@@](O)(CO)CC5)nc34)cn2)ccc1OC` [Compound 153, methyl 5-(5-(6-acetyl-7-amino-5-((1R,4R)-4-hydroxy-4-(hydroxymethyl)-cyclohexyl)-pyrazolo-[1,5-a]pyrimidin-3-yl)pyridin-2-yl)-2-methoxybenzoate], the figures for the IC50 (in experiment [1] (rated class); at human mTOR enzyme (rated class)) were 5000 to 15000 nM and 1 to 100 nM, respectively.

With `CC(=O)c1c(C2CCC(O)(CO)CC2)nc2c(-c3cnn(-c4cscn4)c3)cnn2c1N` (single isomer, unassigned) [Compound 152, 1-(7-amino-5-(4-hydroxy-4-(hydroxymethyl)-cyclohexyl)-3-(1-(thiazol-4-yl)-1H-pyrazol-4-yl)pyrazolo[1,5-a]pyrimidin-6-yl)ethanone], the IC50 in experiment [1] (rated class) lay in the range of 1000 to 2000 nM; on human mTOR enzyme (rated class), 1 to 100 nM.

Take `CC(=O)c1c(C2CCC(O)(CO)CC2)nc2c(-c3cnn(-c4ccccc4)c3)cnn2c1N` (centres unmarked) [Compound 141, 1-(7-amino-5-(4-hydroxy-4-(hydroxymethyl)cyclohexyl)-3-(1-phenyl-1H-pyrazol-4-yl)pyrazolo[1,5-a]pyrimidin-6-yl)ethanone]: the IC50 (in experiment [1] (rated class); at human mTOR enzyme (rated class)) was 1 to 100 nM throughout.

For the compound `Nc1c(Br)c([C@H]2CC[C@]3(CC2)NC(=O)NC3=O)nc2c(-c3ccc(-c4ccccc4)nc3)cnn12` [Compound 72, 8-(7-amino-6-bromo-3-(6-phenylpyridin-3-yl)pyrazolo[1,5-a]pyrimidin-5-yl)-1,3-diazaspiro[4.5]decane-2,4-dione], the IC50 in experiment [1] (numeric value) came to 870 nM; on human mTOR enzyme (numeric value), 11.7 nM.

Turning to `CC(=O)c1c(C2CCC(O)(CO)CC2)nc2c(-c3cnc4ccc(F)cc4c3)cnn2c1N` (centres unmarked) [Compound 142, 1-(7-amino-3-(6-fluoroquinolin-3-yl)-5-(4-hydroxy-4-(hydroxymethyl)-cyclohexyl)-pyrazolo-[1,5-a]pyrimidin-6-yl)ethanone], the IC50 (in experiment [1] (rated class); on human mTOR enzyme (rated class)) was 1 to 100 nM throughout.

Take `CC(=O)c1c(C2CCC(O)(CO)CC2)nc2c(-c3ccc(-c4cccnc4)nc3)cnn2c1N` (centres unmarked) [Compound 143, 1-(3-(2,3′-bipyridin-5-yl)-7-amino-5-(4-hydroxy-4-(hydroxymethyl)-cyclohexyl)-pyrazolo-[1,5-a]pyrimidin-6-yl)ethanone]: the results for the IC50 (in experiment [1] (rated class); at human mTOR enzyme (rated class)) were 1000 to 2000 nM and 1 to 100 nM, respectively.

`N#CC1(O)CCC(c2nc3c(-c4ccc(-c5ccccc5)nc4)cnn3c(N)c2Br)CC1` (centres unmarked) [Compound 74, 4-(7-amino-6-bromo-3-(6-phenylpyridin-3-yl)pyrazolo[1,5-a]pyrimidin-5-yl)-1-hydroxycyclohexanecarbonitrile]: the values for the IC50 (in experiment [1] (rated class); at human mTOR enzyme (rated class)) were 2000 to 5000 nM and 1 to 100 nM, respectively.

`COC[C@]1(C(=O)O)CC[C@@H](c2nc3c(-c4cnc5ccc(F)cc5c4)cnn3c(N)c2Br)CC1` [Compound 8, (1S,4S)-4-(7-amino-6-bromo-3-(6-fluoroquinolin-3-yl)pyrazolo[1,5-a]pyrimidin-5-yl)-1-(methoxymethyl)-cyclohexane-carboxylic acid]: the IC50 fell in the range of 5000 to 15000 nM in experiment [1] (rated class) and 1 to 100 nM on human mTOR enzyme (rated class).

In the case of `COC[C@]1(C(=O)O)CC[C@@H](c2nc3c(-c4ccc(-c5ccccc5)nc4)cnn3c(N)c2C(C)=O)CC1` [Compound 19, (1S,4S)-4-(6-acetyl-7-amino-3-(6-phenylpyridin-3-yl)pyrazolo[1,5-a]pyrimidin-5-yl)-1-(methoxymethyl)-cyclohexane-carboxylic acid], the 50% inhibitory concentration (IC50) in experiment [1] (rated class) was 100 to 1000 nM; at human mTOR enzyme (rated class), 1 to 100 nM.

On to `COCCOC1(CO)CCC(c2nc3c(-c4cnn(-c5ccccc5)c4)cnn3c(N)c2C(C)=O)CC1` (centres unmarked) [Compound 87, 1-(7-amino-5-(4-(hydroxymethyl)-4-(2-methoxyethoxy)-cyclohexyl)-3-(1-phenyl-1H-pyrazol-4-yl)pyrazolo[1,5-a]pyrimidin-6-yl)ethanone], for which the IC50 in experiment [1] (rated class) was 100 to 1000 nM; at human mTOR enzyme (rated class), 1 to 100 nM.

As to `COC[C@]1(C(=O)O)CC[C@H](c2nc3c(-c4cnc5ccc(F)cc5c4)cnn3c(N)c2C(C)=O)CC1` [Compound 22, (1R,4R)-4-(6-acetyl-7-amino-3-(6-fluoroquinolin-3-yl)pyrazolo[1,5-a]pyrimidin-5-yl)-1-(methoxymethyl)-cyclohexane-carboxylic acid], the IC50 is 100 to 1000 nM in experiment [1] (rated class) and 1 to 100 nM at human mTOR enzyme (rated class).

For the compound `COCCOC[C@]1(CO)CC[C@@H](c2nc3c(-c4ccc(-c5ccccc5)nc4)cnn3c(N)c2Br)CC1` [Compound 169, ((1R,4R)-4-(7-amino-6-bromo-3-(6-phenylpyridin-3-yl)pyrazolo[1,5-a]pyrimidin-5-yl)-1-((2-methoxyethoxy)-methyl)cyclohexyl)-methanol], the half-maximal inhibitory concentration (IC50) in experiment [1] (rated class) lay within 2000 to 5000 nM; at human mTOR enzyme (rated class), 1 to 100 nM.

For the compound `Nc1c(Br)c(C2CCC(O)(CO)CC2)nc2c(-c3cnc4ccc(F)cc4c3)cnn12` (centres unmarked) [Compound 136, 4-(7-amino-6-bromo-3-(6-fluoroquinolin-3-yl)pyrazolo[1,5-a]pyrimidin-5-yl)-1-(hydroxymethyl)cyclohexanol], the values for the IC50 (in experiment [1] (rated class); at human mTOR enzyme (rated class)) were 100 to 1000 nM and 1 to 100 nM, respectively.
